In patent US8236822B2, “Compounds as cannabinoid receptor ligands” (Abbott Laboratories, priority 2009, dated 2012):
Where two headings read alike, the source gives them in different places.

Columns and labels:
human CB2 receptors = target: T1, human CB2 receptors (Homo sapiens, UniProt P34972); experiment: human CB2 radioligand binding assay ([3H]CP-55,940 competition)
T1 construct: expressed in transfected cells; host or cells: HEK293
Description: (§1) In Vitro Methods—CB2 and CB1Radioligand Binding Assays:
(§2) The CB1 and CB2 radioligand binding assays described herein are utilized to ascertain the selectivity of compounds of the present application for binding to CB2 relative to CB′ receptors.
(§3) HEK293 cells stably expressing human CB2 receptors were grown until a confluent monolayer was formed. Briefly, the cells were harvested and homogenized in TE buffer (50 mM Tris-HCl, 1 mM MgCl2, and 1 mM EDTA) using a polytron for 2×10 second bursts in the presence of protease inhibitors, followed by centrifugation at 45,000×g for 20 minutes. The final membrane pellet was re-homogenized in storage buffer (50 mM Tris-HCl, 1 mM MgCl2, and 1 mM EDTA and 10% sucrose) and frozen at −78° C. until used. Saturation binding reactions were initiated by the addition of membrane preparation (protein concentration of 5 μg/well for human CB2) into wells of a deep well plate containing [^3H]CP-55,940 (120 Ci/mmol, a nonselective CB agonist commercially available from Tocris) in assay buffer (50 mM Tris, 2.5 mM EDTA, 5 mM MgCl2, and 0.5 mg/mL fatty acid free BSA, pH 7.4). After 90 min incubation at 30° C., binding reaction was terminated by the addition of 300 μL/well of cold assay buffer followed by rapid vacuum filtration through a UniFilter-96 GF/C filter plates (pre-soaked in 1 mg/mL BSA for 2 hours). The bound activity was counted in a TopCount using Microscint-20. Saturation experiments were conducted with twelve concentrations of [^3H]CP-55,940 ranging from 0.01 to 8 nM. Competition experiments were conducted with 0.5 nM [^3H]CP-55,940 and five concentrations (0.01 nM to 10 μM) of displacing ligands. The addition of 10 μM unlabeled CP-55,940 (Tocris, Ellisville, Mo.) was used to assess nonspecific binding.

rat CB2 receptors = target: T2, rat CB2 receptors (Rattus norvegicus, UniProt Q9QZN9); experiment: rat CB2 radioligand binding assay ([3H]CP-55,940 competition)
T2 construct: expressed in transfected cells; host or cells: HEK293
T2 sequence (Q9QZN9 1-360): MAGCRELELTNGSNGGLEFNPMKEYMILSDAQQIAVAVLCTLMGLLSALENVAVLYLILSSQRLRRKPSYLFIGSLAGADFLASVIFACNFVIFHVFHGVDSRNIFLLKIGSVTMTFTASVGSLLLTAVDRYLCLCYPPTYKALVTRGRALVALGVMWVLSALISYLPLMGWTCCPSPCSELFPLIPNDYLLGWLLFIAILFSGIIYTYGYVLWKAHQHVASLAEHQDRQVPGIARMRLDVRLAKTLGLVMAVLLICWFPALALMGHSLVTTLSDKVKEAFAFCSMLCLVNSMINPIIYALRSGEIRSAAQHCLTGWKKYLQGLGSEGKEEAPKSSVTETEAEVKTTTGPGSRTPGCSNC
Description: as §1, §2
as §3, with “expressing rat” for “expressing human”, “of 20” for “of 5”, “for rat” for “for human”, “After 45” for “After 90”, “concentrations of displacing ligands selected from the range of 0.01” for “concentrations (0.01”, “10 μM.” for “10 μM) of displacing ligands.”

T1 sequence (P34972 whole entry): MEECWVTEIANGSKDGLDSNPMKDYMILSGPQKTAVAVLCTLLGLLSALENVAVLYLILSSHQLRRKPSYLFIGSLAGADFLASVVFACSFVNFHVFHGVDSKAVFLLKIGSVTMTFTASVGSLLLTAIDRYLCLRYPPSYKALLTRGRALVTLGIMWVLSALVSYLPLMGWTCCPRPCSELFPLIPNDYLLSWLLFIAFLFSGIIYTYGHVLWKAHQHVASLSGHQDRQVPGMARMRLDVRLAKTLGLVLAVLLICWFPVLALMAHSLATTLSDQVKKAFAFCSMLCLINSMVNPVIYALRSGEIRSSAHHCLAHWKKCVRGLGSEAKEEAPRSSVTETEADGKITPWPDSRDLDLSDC

Row | Compound | Ki (human CB2 receptors) | Ki (rat CB2 receptors) | Ki (rat CB2 receptors; HEK293 membranes expressing rat CB2, 0.5 nM [3H]CP-55,940, read-out: rat CB2 binding (Ki))
1 | Cn1c(C(C)(C)C)c/c(=N\C(=O)c2cc(C(F)(F)F)ccc2OCCNC(C)(C)C)n1CC1CC1 [Example 1, 2-[2-(tert-butylamino)ethoxy]-N-[(3E)-5-tert-butyl-2-(cyclopropylmethyl)-1-methyl-1,2-dihydro-3H-pyrazol-3-ylidene]-5-(trifluoromethyl)benzamide] | 123 nM | 44.2 nM | 
2 | Cn1c(C(C)(C)C)c/c(=N\C(=O)c2cc(C(F)(F)F)ccc2OC2CN(C(C)(C)C)C2)n1CC1CC1 [Example 2, 2-[(1-tert-butylazetidin-3-yl)oxy]-N-[(3E)-5-tert-butyl-2-(cyclopropylmethyl)-1-methyl-1,2-dihydro-3H-pyrazol-3-ylidene]-5-(trifluoromethyl)benzamide] |  | 459 nM | 
3 | CCCCn1nc(C(C)(C)C)s/c1=N\C(=O)c1cc(C(F)(F)F)ccc1OC1CN(C(C)(C)C)C1 [Example 3, 2-[(1-tert-butylazetidin-3-yl)oxy]-N-[(2Z)-3-butyl-5-tert-butyl-1,3,4-thiadiazol-2(3H)-ylidene]-5-(trifluoromethyl)benzamide] | 46.4 nM | 29.1 nM | 
4 | CCCCn1/c(=N/C(=O)c2cc(C(F)(F)F)ccc2OCCNC(C)(C)C)cc(C(C)(C)C)n1C [Example 4, 2-[2-(tert-butylamino)ethoxy]-N-[(3E)-2-butyl-5-tert-butyl-1-methyl-1,2-dihydro-3H-pyrazol-3-ylidene]-5-(trifluoromethyl)benzamide] |  |  | 104 nM
5 | Cn1c(C(C)(C)C)c/c(=N\C(=O)c2cc(C(F)(F)F)ccc2OCCNC(C)(C)C)n1CC1CCC1 [Example 5, 2-[2-(tert-butylamino)ethoxy]-N-[(3E)-5-tert-butyl-2-(cyclobutylmethyl)-1-methyl-1,2-dihydro-3H-pyrazol-3-ylidene]-5-(trifluoromethyl)benzamide] | 199 nM |  | 
6 | CN1CC[C@H](Oc2ccc(C(F)(F)F)cc2C(=O)/N=c2\cc(C(C)(C)C)n(C)n2CC2CCC2)C1 [Example 6, N-[(3E)-5-tert-butyl-2-(cyclobutylmethyl)-1-methyl-1,2-dihydro-3H-pyrazol-3-ylidene]-2-{[(3S)-1-methylpyrrolidin-3-yl]oxy}-5-(trifluoromethyl)benzamide] |  | 420 nM | 
